The values below come from PMC4575644 (ACS chemical biology, 2015).

Holding throughout (format): cell-based
Assay [1] deals with T1, N-acylethanolamine acid amidase (hNAAA) (Homo sapiens, UniProt Q02083).
T1 sequence (Q02083 29-125): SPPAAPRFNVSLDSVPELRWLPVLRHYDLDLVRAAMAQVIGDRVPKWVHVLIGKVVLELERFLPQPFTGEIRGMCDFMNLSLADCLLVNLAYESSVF
T1 sequence (Q02083 126-359): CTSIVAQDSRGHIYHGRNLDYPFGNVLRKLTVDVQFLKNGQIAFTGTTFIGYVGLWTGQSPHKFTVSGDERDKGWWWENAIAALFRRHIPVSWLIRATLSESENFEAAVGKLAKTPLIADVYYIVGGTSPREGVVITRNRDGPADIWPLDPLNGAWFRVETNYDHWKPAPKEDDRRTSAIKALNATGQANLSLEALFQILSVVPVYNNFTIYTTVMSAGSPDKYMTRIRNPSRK
As to the kind of experiment: competitive ABPP against probe […] in intact NAAA-HEK293 cells.

The target of assay [2] is T2, N-acylethanolamine acid amidase (rNAAA) (Rattus norvegicus, UniProt Q5KTC7).
T2 sequence (Q5KTC7 34-130): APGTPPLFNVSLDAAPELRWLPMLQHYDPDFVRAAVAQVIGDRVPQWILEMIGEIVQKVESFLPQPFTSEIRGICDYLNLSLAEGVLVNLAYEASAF
T2 sequence (Q5KTC7 131-362): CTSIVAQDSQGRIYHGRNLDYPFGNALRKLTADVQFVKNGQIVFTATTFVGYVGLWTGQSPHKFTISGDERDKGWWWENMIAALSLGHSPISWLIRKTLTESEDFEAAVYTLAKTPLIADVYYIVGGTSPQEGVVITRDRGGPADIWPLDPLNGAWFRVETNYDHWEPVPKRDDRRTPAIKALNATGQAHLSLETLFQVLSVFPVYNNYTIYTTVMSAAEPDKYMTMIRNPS
Nature of the assay: enzyme inhibition IC50.

The target of assay [3] is T3, acid ceramidase (AC) (Rattus norvegicus, UniProt Q6P7S1).
T3 sequence (Q6P7S1 21-141): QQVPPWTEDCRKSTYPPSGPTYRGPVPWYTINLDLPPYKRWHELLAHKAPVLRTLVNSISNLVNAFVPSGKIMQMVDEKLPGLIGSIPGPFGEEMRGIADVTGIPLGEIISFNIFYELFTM
T3 sequence (Q6P7S1 142-394): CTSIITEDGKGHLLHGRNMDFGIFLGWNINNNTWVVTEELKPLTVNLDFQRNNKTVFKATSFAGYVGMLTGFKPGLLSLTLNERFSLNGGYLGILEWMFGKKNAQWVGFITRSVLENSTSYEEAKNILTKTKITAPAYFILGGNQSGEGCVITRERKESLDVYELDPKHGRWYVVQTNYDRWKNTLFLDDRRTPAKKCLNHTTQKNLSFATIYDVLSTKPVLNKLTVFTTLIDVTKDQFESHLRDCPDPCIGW
As to the kind of experiment: enzyme inhibition IC50.

A word on the IC50: it is the concentration at which inhibition is half-maximal. High values mean weaker potency, low ones greater potency.

Turning to `C[C@@H]1OC(=O)[C@@H]1NC(=O)OCCCCCc1ccccc1` [ARN077, 5-phenylpentyl N-[(2S,3R)-2-methyl-4-oxo-oxetan-3-yl]carbamate], the “competitive ABPP against probe 1 in intact NAAA-HEK293 cells (40 μM)” value in assay [1] is recorded as “In either case, a decrease in signal intensity was observed, but a more pronounced masking of NAAA was noted”.
`C#CCCCCCCCCCOC(=O)N[C@H]1CNC1=O` [compound 1, undec-10-ynyl N-[(3S)-2-oxoazetidin-3-yl]carbamate]: the concentration for half-maximal inhibition (IC50) in assay [2] worked out at 13 nM; in assay [3] it was 1200 nM.
